In test [1] the target is T1, trypsin (Bos taurus, UniProt P00760).
T1 sequence (P00760 24-246): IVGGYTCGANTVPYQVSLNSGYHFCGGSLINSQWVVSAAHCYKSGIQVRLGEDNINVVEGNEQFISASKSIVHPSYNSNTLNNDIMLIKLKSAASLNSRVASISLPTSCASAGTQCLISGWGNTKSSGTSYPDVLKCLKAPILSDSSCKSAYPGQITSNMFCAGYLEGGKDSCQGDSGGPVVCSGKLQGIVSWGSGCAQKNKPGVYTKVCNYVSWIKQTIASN
The test is described as follows: Inhibition of trypsin hydrolysis of casein, in vitro. Format: biochemical. Conditions: casein substrate, 20 μg of trypsin, 37° C., 10 minutes; read-out: 50% inhibitory concentration, substrate casein. The procedure:
(§1) The inhibitory activity on trypsin in vitro was determined by the methods of Muramatsu, et al. described in the Journal of Biochemistry, 58, 214 (1965).

Test [2] has as its target T1, trypsin. In words: Inhibition of trypsin hydrolysis of TAME (p-tosylarginine methyl ester), in vitro. The format is biochemical. Conditions: TAME substrate, 1.5 μg of trypsin, 37° C., 10 minutes; read-out: 50% inhibitory concentration, substrate TAME. The procedure:
as §1

Structures can show the parent of a compound that is named as a salt.

Take `CN(C)C(=O)COC(=O)Cc1ccc(OC(=O)c2ccc(NC(=N)N)cc2)cc1` [Camostat mesylate, N,N-Dimethylcarbamoylmethyl -p-( -p-guanidinobenzoyloxy)phenylacetate methanesulfonate, reference compound]: the IC50 in test [1] was found to be 0.14 µM; in test [2] it was 0.065 µM.

For the compound `CC(C)OC(=O)c1nccc2c(OC(=O)c3ccc(NC(=N)N)cc3)cccc12` [Compound No. 9, 1'-Isopropoxycarbonyl-5'-isoquinolyl 4-guanidinobenzoate hydrochloride], the IC50 in test [1] was 0.16 µM; in test [2], 0.13 µM.

With `N=C(N)Nc1ccc(C(=O)Oc2cccc3cnccc23)cc1` [Compound No. 1, 5-Isoquinolyl 4-guanidinobenzoate dimethanesulfonate monohydrate], the IC50 was 0.13 µM in test [1] and 0.056 µM in test [2].

Turning to `N=C(N)Nc1ccc(C(=O)Oc2cccc3c(O)nccc23)cc1` [Compound No. 2, 1'-Hydroxy-5'-isoquinolyl 4-guanidinobenzoate methanesulfonate], the IC50 in test [1] is 0.14 µM; in test [2], 0.064 µM.

For the compound `N=C(N)Nc1ccc(C(=O)Oc2cccc3c(C(N)=O)nccc23)cc1` [Compound No. 6, 1'-Carbamoyl-5'-isoquinolyl 4-guanidinobenzoate methanesulfonate hemihydrate], the IC50 in test [1] turned out to be 0.16 µM; in test [2], 0.056 µM.

With `N#Cc1nccc2c(OC(=O)c3ccc(NC(=N)N)cc3)cccc12` [Compound No. 3, 1'-Cyano-5'-isoquinolyl 4-guanidinobenzoate methanesulfonate monohydrate], the figures for the IC50 in test [1] and in test [2] were 0.14 µM and 0.056 µM, respectively.

Take `N=C(N)Nc1ccc(C(=O)Oc2cccc3c(C(=O)OCc4ccccc4)nccc23)cc1` [Compound No. 11, 1'-Benzyloxycarbonyl-5'-isoquinolyl 4-guanidinobenzoate hydrochloride monohydrate]: the IC50 in test [1] turned out to be 0.41 µM; in test [2], 0.34 µM.

In the case of `CCCCOC(=O)c1nccc2c(OC(=O)c3ccc(NC(=N)N)cc3)cccc12` [Compound No. 10, 1'-Butoxycarbonyl-5'-isoquinolyl 4-guanidinobenzoate hydrochloride monohydrate], the values for the IC50 in test [1] and in test [2] were 0.21 µM and 0.15 µM, respectively.

For `CCOC(=O)c1ccc(OC(=O)CCCCCNC(=N)N)cc1` [Gabexate mesylate, Ethyl 4-(6-guanidinohexanoyloxy)benzoate methanesulfonate, reference compound], the IC50 in test [1] was 2.2 µM; in test [2], 15 µM.

Turning to `CN(C)C(=O)COC(=O)c1nccc2c(OC(=O)c3ccc(NC(=N)N)cc3)cccc12` [Compound No. 12, 1'-(N,N-Dimethylcarbamoyl)methoxycarbonyl-5'-isoquinolyl 4-guanidinobenzoate hydrochloride], the values for the IC50 in test [1] and in test [2] were 0.14 µM and 0.066 µM, respectively.

Turning to `CCCOC(=O)c1nccc2c(OC(=O)c3ccc(NC(=N)N)cc3)cccc12` [Compound No. 8, 1'-Propoxycarbonyl-5'-isoquinolyl 4-guanidinobenzoate methanesulfonate], the IC50 in test [1] turned out to be 0.16 µM; in test [2], 0.096 µM.

As to `CC(=O)c1nccc2c(OC(=O)c3ccc(NC(=N)N)cc3)cccc12` [Compound No. 4, 1'-Acetyl-5'-isoquinolyl 4-guanidinobenzoate hydrochloride], the IC50 in test [1] was determined as 0.14 µM; in test [2], 0.057 µM.

On to `N=C(N)Nc1ccc(C(=O)Oc2cccc3c(C(=O)O)nccc23)cc1` [Compound No. 5, 1'-Carboxy-5'-isoquinolyl 4-guanidinobenzoate quarterhydrate], for which the results for the IC50 in test [1] and in test [2] were 0.17 µM and 0.064 µM, respectively.

For `CCOC(=O)c1nccc2c(OC(=O)c3ccc(NC(=N)N)cc3)cccc12` [Compound No. 7, 1'-Ethoxycarbonyl-5'-isoquinolyl 4-guanidinobenzoate hydrochloride], the IC50 in test [1] was 0.12 µM; in test [2] it was 0.056 µM.

Source of the values: US5116985A, “Isoquinoline derivatives and salts thereof” (priority 1989, dated 1992).
